In patent US12616697B2, “Methods of treatment with myosin modulator” (MyoKardia, Inc., priority 2020, dated 2026):
“And” between values parts separate entries of the source, which are not always exact repeats. Equal entries are not always repeated.

Test system: adults with symptomatic oHCM
Assay: PIONEER-OLE Phase 2 open-label extension study of mavacamten
Format: in vivo
Procedure: All subjects were started on a dose of 5 mg QD.
To maximize safety, the starting dose will be 5 mg for all subjects. Subjects will return at Week 4 (±4 days) for a plasma PK sample to measure drug levels and to undergo echocardiography to determine LVOT gradient (at rest, after a Valsalva maneuver, and after exercise) and left ventricular ejection fraction (LVEF).
After Week 6, additional study visits will occur at Week 8 (±7 days), Week 12 (±7 days), and every 12 weeks (±7 days) thereafter. Subjects also will be contacted by phone in between clinic visits, at Week 18 and every 12 weeks thereafter. An end of study (EOS) visit will occur 12 weeks (±7 days) after the last administration of study drug. Visits (including the Screening visit which serves as the baseline) will entail recording vital signs, targeted physical examination, ECGs, safety laboratory tests, N-terminal pro b-type natriuretic peptide (NT-proBNP), adverse events (AEs), New York Heart Association (NYHA) functional class, Kansas City Cardiomyopathy Questionnaire (KCCQ) score, and concomitant medications. At Weeks 4, 8, 24, 36, 48, 60, 72, 96, 120, 144, 156/early termination (ET), and 168/EOS, a predose blood sample for assessment of drug concentration will be obtained. A standard TTE (including but not limited to assessment of LVOT gradient at rest and after Valsalva) will be performed at baseline, at Weeks 4, 8, 12, 24, 36, 48, 72, 96, 120, 144, 156/ET, and 168/EOS. In addition, a stress echocardiogram (with assessment of LVOT gradient post-exercise) will also be performed at baseline, Weeks 4, 48, 72, 156/ET, and 168/EOS.
The study endpoints include safety, tolerability, and select measures of efficacy using individualized dosing. Key measurements include LVOT gradient, LVEF, NT-proBNP.
• 1. Frequency and severity of treatment-emergent AEs and SAEs, • 2. Frequency of cardiovascular (CV) death, • 3. Frequency of sudden death, • 4. Frequency of CV hospitalization, • 5. Frequency of heart failure requiring the initiation of oral loop diuretics or the administration of intravenous loop diuretics, • 6. Frequency of myocardial infarction, • 7. Frequency of ventricular arrhythmias (ventricular tachycardia, ventricular fibrillation, ventricular flutter, torsade de pointe), • 8. Frequency of syncope, • 9. Frequency of seizures, • 10. Frequency of stroke, • 11. Frequency of LVEF≤45 as measured by echocardiography, • 12. QT and QTcF intervals over time. Efficacy and Pharmacodynamics Include: • 1. Post-exercise, post-Valsalva, and resting LVOT gradient over time, • 2. NYHA functional class over time, • 3. KCCQ scores over time, • 4. NT-proBNP over time, • 5. Frequency of septal reduction therapy.

With `CC(C)n1c(=O)cc(N[C@@H](C)c2ccccc2)[nH]c1=O` [mavacamten, (S)-3-Isopropyl-6-((1-phenylethyl)amino)pyrimidine-2, 4(1H,3H)-dione] the “cardiac-related adverse events attributed to study drug” value (48-week period) was “no cardiac-related adverse events (AEs) attributed to study drug”, the “E/e′ lateral, mean” value (Change from Baseline to Week 48) was −3.4 and the “E/e′ lateral, mean” value (Week 12) was 9.8. For the same compound, the “IVS (interventricular septal thickness), mean” value (Week 12) was 16.0 mm, the “IVS (interventricular septal thickness), mean” value (Week 12, listed as Mavacamten) was 15.9 ± 2.7 mm and the “E/e′ lateral, mean” value (Week 24) was 10.2. The “IVS (interventricular septal thickness), mean” value (Week 24) was 15.8 mm, the “IVS (interventricular septal thickness), mean” value (Week 24, listed as Mavacamten) was 15.8 ± 2.7 mm and the “E/e′ lateral, mean” value (Week 36) was 8.5. The “IVS (interventricular septal thickness), mean” value (Week 36) was 15.4 mm, the “IVS (interventricular septal thickness), mean” value (Week 36, listed as Mavacamten) was 15.4 ± 2.7 mm and the “E/e′ lateral, mean” value (Week 48) was 9.1. The “IVS (interventricular septal thickness), mean” value (Week 48) was 15 mm and 15.3 mm, the “IVS (interventricular septal thickness), mean change from baseline” value (Week 48) was −1.5 mm and the “LVEF, mean change from baseline” value (Week 48) was −1.8%. For the same compound, the “NT-proBNP, median” value (Week 48) was 136.5 pg/mL, the “patients who achieved a post-exercise LVOT gradient <30 mm Hg” value (Week 48) was “Five” and the “IVS (interventricular septal thickness), mean” value (Week 48, listed as Mavacamten) was 15.5 ± 2.0 mm. The “IVS (interventricular septal thickness), mean change from baseline” value (Week 48, listed as Mavacamten) was −1.2 mm and −1.2 ± 2.3 mm, the “median NT-proBNP, change from baseline” value (Week 60) was -481 pg/mL and the LVEF maintained (all patients at all timepoints) was “above 50%”. The “AEs considered potentially related to study drug” value (in 3 subjects, 7 mild, 1 moderate) was 8.
